Data taken from ChEMBL document CHEMBL3885881, “DrugMatrix”.

Organism: Rattus norvegicus
Experiment: DrugMatrix - Regimen: Daily Repeat
Format: toxicity, organism-based, Sprague-Dawley
Set-up: regimen Daily Repeat, gender Male, age 6-8 weeks
Conditions: in vivo, po, route oral GAVAGE, vehicle .5 % CMC; for ABSOLUTE BASOPHIL / ABSOLUTE EOSINOPHIL / ABSOLUTE LYMPHOCYTE / ABSOLUTE MONOCYTE / ABSOLUTE SEGMENTED NEUTROPHIL / BASOPHIL / EOSINOPHIL / ERYTHROCYTE COUNT / HEMATOCRIT / HEMOGLOBIN / LEUKOCYTE COUNT / LYMPHOCYTE / MEAN CORPUSCULAR HEMOGLOBIN / MEAN CORPUSCULAR HEMOGLOBIN CONCENTRATION / MEAN CORPUSCULAR VOLUME / MONOCYTE / NEUTROPHIL / NUCLEATED RED BLOOD CELLS / PLATELET COUNT: tissue Blood; for ALANINE AMINOTRANSFERASE / ALBUMIN / ALKALINE PHOSPHATASE / ASPARTATE AMINOTRANSFERASE / BLOOD UREA NITROGEN / CARBON DIOXIDE / CHLORIDE / CHOLESTEROL / CREATINE PHOSPHOKINASE / CREATININE / GLUCOSE / LACTATE DEHYDROGENASE / LIPASE / PHOSPHORUS / POTASSIUM / SODIUM / TOTAL BILIRUBIN / TOTAL PROTEIN / URIC ACID: tissue Plasma
[1] = 100 mg/kg, 72 h, dose level Low, time 3 day
[2] = 100 mg/kg, 120 h, dose level Low, time 5 day
[3] = 2000 mg/kg, 72 h, dose level High, time 3 day
[4] = 2000 mg/kg, 120 h, dose level High, time 5 day

C#C[C@]1(O)CC[C@H]2[C@@H]3CCC4=Cc5oncc5C[C@]4(C)[C@H]3CC[C@@]21C [DANAZOL]
ABSOLUTE BASOPHIL [1]: 0 CELLS/uL | ABSOLUTE EOSINOPHIL [1]: 39 CELLS/uL | ABSOLUTE LYMPHOCYTE [1]: 10714 CELLS/uL | ABSOLUTE MONOCYTE [1]: 124 CELLS/uL | ABSOLUTE SEGMENTED NEUTROPHIL [1]: 1823 CELLS/uL | BASOPHIL [1]: 0% | EOSINOPHIL [1]: 0.33% | ERYTHROCYTE COUNT [1]: 5.54 x10E6/uL | HEMATOCRIT [1]: 34.17% | HEMOGLOBIN [1]: 13.43 G/DL | LEUKOCYTE COUNT [1]: 12.7 x10E3/uL | LYMPHOCYTE [1]: 84.33% | MEAN CORPUSCULAR HEMOGLOBIN [1]: 24.3 pg | MEAN CORPUSCULAR HEMOGLOBIN CONCENTRATION [1]: 39.3 G/DL | MEAN CORPUSCULAR VOLUME [1]: 61.77 fL | MONOCYTE [1]: 1% | NEUTROPHIL [1]: 14.33% | NUCLEATED RED BLOOD CELLS [1]: 0 /100WBC | PLATELET COUNT [1]: 1192.67 x10E3/uL | ALANINE AMINOTRANSFERASE [1]: 44.33 u/L | ALBUMIN [1]: 4.17 G/DL | ALKALINE PHOSPHATASE [1]: 377 u/L | ASPARTATE AMINOTRANSFERASE [1]: 76.33 u/L | BLOOD UREA NITROGEN [1]: 14.67 mg/dL | CARBON DIOXIDE [1]: 25.33 mmol/L | CHLORIDE [1]: 102 MEQ/L | CHOLESTEROL [1]: 55 mg/dL | CREATINE PHOSPHOKINASE [1]: 401.33 u/L | CREATININE [1]: 0.17 mg/dL | GLUCOSE [1]: 163.33 mg/dL | LACTATE DEHYDROGENASE [1]: 137 u/L | LIPASE [1]: 10 u/L | PHOSPHORUS [1]: 12.07 mg/dL | POTASSIUM [1]: 6.65 MEQ/L | SODIUM [1]: 143.7 MEQ/L | TOTAL BILIRUBIN [1]: 0.2 mg/dL | TOTAL PROTEIN [1]: 5.97 G/DL | URIC ACID [1]: 1.73 mg/dL | ABSOLUTE BASOPHIL [2]: 0 CELLS/uL | ABSOLUTE EOSINOPHIL [2]: 63 CELLS/uL | ABSOLUTE LYMPHOCYTE [2]: 13104.67 CELLS/uL | ABSOLUTE MONOCYTE [2]: 130.33 CELLS/uL | ABSOLUTE SEGMENTED NEUTROPHIL [2]: 1568.67 CELLS/uL | BASOPHIL [2]: 0% | EOSINOPHIL [2]: 0.33% | ERYTHROCYTE COUNT [2]: 5.51 x10E6/uL | HEMATOCRIT [2]: 33.67% | HEMOGLOBIN [2]: 13.33 G/DL | LEUKOCYTE COUNT [2]: 14.87 x10E3/uL | LYMPHOCYTE [2]: 88% | MEAN CORPUSCULAR HEMOGLOBIN [2]: 24.2 pg | MEAN CORPUSCULAR HEMOGLOBIN CONCENTRATION [2]: 39.57 G/DL | MEAN CORPUSCULAR VOLUME [2]: 61.07 fL | MONOCYTE [2]: 1% | NEUTROPHIL [2]: 10.67% | NUCLEATED RED BLOOD CELLS [2]: 0 /100WBC | PLATELET COUNT [2]: 1135.67 x10E3/uL | ALANINE AMINOTRANSFERASE [2]: 59.67 u/L | ALBUMIN [2]: 4.07 G/DL | ALKALINE PHOSPHATASE [2]: 404 u/L | ASPARTATE AMINOTRANSFERASE [2]: 88.67 u/L | BLOOD UREA NITROGEN [2]: 15.67 mg/dL | CARBON DIOXIDE [2]: 28 mmol/L | CHLORIDE [2]: 99.67 MEQ/L | CHOLESTEROL [2]: 47.67 mg/dL | CREATINE PHOSPHOKINASE [2]: 326.33 u/L | CREATININE [2]: 0.2 mg/dL | GLUCOSE [2]: 144 mg/dL | LACTATE DEHYDROGENASE [2]: 320.33 u/L | LIPASE [2]: 9 u/L | PHOSPHORUS [2]: 10.93 mg/dL | POTASSIUM [2]: 6.55 MEQ/L | SODIUM [2]: 142.4 MEQ/L | TOTAL BILIRUBIN [2]: 0.23 mg/dL | TOTAL PROTEIN [2]: 5.87 G/DL | URIC ACID [2]: 1.63 mg/dL | ABSOLUTE BASOPHIL [3]: 0 CELLS/uL | ABSOLUTE EOSINOPHIL [3]: 36.33 CELLS/uL | ABSOLUTE LYMPHOCYTE [3]: 8482.33 CELLS/uL | ABSOLUTE MONOCYTE [3]: 63 CELLS/uL | ABSOLUTE SEGMENTED NEUTROPHIL [3]: 1351.67 CELLS/uL | BASOPHIL [3]: 0% | EOSINOPHIL [3]: 0.33% | ERYTHROCYTE COUNT [3]: 6.02 x10E6/uL | HEMATOCRIT [3]: 35.6% | HEMOGLOBIN [3]: 13.97 G/DL | LEUKOCYTE COUNT [3]: 9.93 x10E3/uL | LYMPHOCYTE [3]: 85.33% | MEAN CORPUSCULAR HEMOGLOBIN [3]: 23.23 pg | MEAN CORPUSCULAR HEMOGLOBIN CONCENTRATION [3]: 39.23 G/DL | MEAN CORPUSCULAR VOLUME [3]: 59.17 fL | MONOCYTE [3]: 0.67% | NEUTROPHIL [3]: 13.67% | NUCLEATED RED BLOOD CELLS [3]: 0 /100WBC | PLATELET COUNT [3]: 1115.33 x10E3/uL | ALANINE AMINOTRANSFERASE [3]: 54.67 u/L | ALBUMIN [3]: 4.13 G/DL | ALKALINE PHOSPHATASE [3]: 331 u/L | ASPARTATE AMINOTRANSFERASE [3]: 125.67 u/L | BLOOD UREA NITROGEN [3]: 18 mg/dL | CARBON DIOXIDE [3]: 30 mmol/L | CHLORIDE [3]: 99.67 MEQ/L | CHOLESTEROL [3]: 51.67 mg/dL | CREATINE PHOSPHOKINASE [3]: 222.33 u/L | CREATININE [3]: 0.15 mg/dL | GLUCOSE [3]: 144.67 mg/dL | LACTATE DEHYDROGENASE [3]: 126.33 u/L | LIPASE [3]: 10 u/L | PHOSPHORUS [3]: 12 mg/dL | POTASSIUM [3]: 6.6 MEQ/L | SODIUM [3]: 143.8 MEQ/L | TOTAL BILIRUBIN [3]: 0.17 mg/dL | TOTAL PROTEIN [3]: 6.13 G/DL | URIC ACID [3]: 1.7 mg/dL | ABSOLUTE BASOPHIL [4]: 0 CELLS/uL | ABSOLUTE EOSINOPHIL [4]: 32.33 CELLS/uL | ABSOLUTE LYMPHOCYTE [4]: 11456 CELLS/uL | ABSOLUTE MONOCYTE [4]: 0 CELLS/uL | ABSOLUTE SEGMENTED NEUTROPHIL [4]: 1345 CELLS/uL | BASOPHIL [4]: 0% | EOSINOPHIL [4]: 0.33% | ERYTHROCYTE COUNT [4]: 5.94 x10E6/uL | HEMATOCRIT [4]: 35.4% | HEMOGLOBIN [4]: 14 G/DL | LEUKOCYTE COUNT [4]: 12.83 x10E3/uL | LYMPHOCYTE [4]: 88.67% | MEAN CORPUSCULAR HEMOGLOBIN [4]: 23.57 pg | MEAN CORPUSCULAR HEMOGLOBIN CONCENTRATION [4]: 39.57 G/DL | MEAN CORPUSCULAR VOLUME [4]: 59.5 fL | MONOCYTE [4]: 0% | NEUTROPHIL [4]: 11% | NUCLEATED RED BLOOD CELLS [4]: 0 /100WBC | PLATELET COUNT [4]: 1399.33 x10E3/uL | ALANINE AMINOTRANSFERASE [4]: 62.67 u/L | ALBUMIN [4]: 4.17 G/DL | ALKALINE PHOSPHATASE [4]: 326.67 u/L | ASPARTATE AMINOTRANSFERASE [4]: 68 u/L | BLOOD UREA NITROGEN [4]: 18.67 mg/dL | CARBON DIOXIDE [4]: 28.33 mmol/L | CHLORIDE [4]: 99.33 MEQ/L | CHOLESTEROL [4]: 45.33 mg/dL | CREATINE PHOSPHOKINASE [4]: 147.33 u/L | CREATININE [4]: 0.18 mg/dL | GLUCOSE [4]: 140.67 mg/dL | LACTATE DEHYDROGENASE [4]: 121 u/L | LIPASE [4]: 10 u/L | PHOSPHORUS [4]: 12.37 mg/dL | POTASSIUM [4]: 6.84 MEQ/L | SODIUM [4]: 145.03 MEQ/L | TOTAL BILIRUBIN [4]: 0.2 mg/dL | TOTAL PROTEIN [4]: 6.73 G/DL | URIC ACID [4]: 1.6 mg/dL
